The text below walks through data of PubChem BioAssay AID602435 (Southern Research Specialized Biocontainment Screening …, 2012).

The structures appear in SMILES notation. Several values for one entry are separate records, joined by “and”; a condition that tells them apart may be missing. Equal values may be shown once. Results filed as inconclusive are left out. Activity calls are given as the source filed them. How the calls were made is not given here.

The subject of assay [1] is Mycobacterium tuberculosis H37Rv growth, 7H9 medium. The assay is described as follows: M. tuberculosis growth inhibition, dose response, 7H9 medium, purified and synthesized samples, set 9 (AID 602435). Conditions: for IC50: measured here: IC50 growth inhibition replicates.
Test in assay [2]: as above
Conditions: Mycobacterium tuberculosis H37Rv growth, 7H9 medium.

In turn, `Cc1cccc(N2CCN(C(=O)c3ccc(CNc4c(N5CCC(C)CC5)c(=O)c4=O)cc3)CC2)c1C` returned an IC50 in assay [1] of 42.1 µM.
With `O=C(c1ccc(CNc2c(N3CCCC3)c(=O)c2=O)cc1)N1CCC(c2ccccc2)CC1`, the IC50 in assay [1] amounted to 79.7 µM.
In assay [1], `O=C(NCCc1ccc(Cl)cc1)C1CCC(CNc2c(N3CCCCC3)c(=O)c2=O)CC1` (stereo not given) gave an IC50 of 37.1 µM.
Still for that read-out and setting: then `O=C(C1CCC(CNc2c(N3CCCCC3)c(=O)c2=O)CC1)N1CCCCC1` (stereo not given), with 25.2 µM.
On to `O=C(NCCc1ccc(Cl)cc1)c1ccc(CNc2c(N3CCOCC3)c(=O)c2=O)cc1`, for which, in assay [1], the IC90 was 19.1 µM; the IC50 was 10.5 µM and 12.5 µM.
Consider `CC(C)CCNC(=O)CSc1nc2ccccc2c(=O)[nH]1`, for which, in assay [1], the IC90 is 0.78 µM and the IC50 worked out at 0.696 µM.
For the molecule `CCOc1ccc(NC(=O)c2ccc(CNc3c(N4CCCC4)c(=O)c3=O)cc2)cc1`, the growth inhibition in assay [2] (at 100 µM (top of the series)) was -10% (inactive).
For `CC(C)CCNC(=O)CSc1nc2c(c(=O)[nH]1)CCCC2`, in assay [1], the IC90 was 6.12 µM and the IC50 stood at 4.43 µM.
Turning to `O=C(c1ccc(CNc2c(N3CCOCC3)c(=O)c2=O)cc1)N1CCN(c2ccccc2)CC1`, in assay [1], the IC50 worked out at 3.45 µM.
With `COc1ccc(N2CCN(C(=O)c3ccc(CNc4c(N5CCCC(C)C5)c(=O)c4=O)cc3)CC2)cc1` (stereo not given), in assay [1], the IC90 was 46.9 µM and the IC50 was determined as 28.1 µM.
Molecule `O=C(c1ccc(CNc2c(N3CCCC3)c(=O)c2=O)cc1)N1CCc2ccccc2C1` showed an IC50 in assay [1] of 5.06 µM.
On to `O=C(c1ccc(CNc2c(N3CCOCC3)c(=O)c2=O)cc1)N1CC=C(c2ccccc2)CC1`, for which, in assay [1], the IC90 is 6.81 µM and the IC50 is 0.957 µM.
In assay [1], `CC1CCCN(C(=O)C2CCC(CNc3c(N4CCCCC4)c(=O)c3=O)CC2)C1` (stereo not given) showed an IC50 of 26.2 µM.
Consider `CC1CCCN(c2c(NCc3ccc(C(=O)N4CC=C(c5ccccc5)CC4)cc3)c(=O)c2=O)C1` (stereo not given), for which, in assay [1], the IC90 is 11.8 µM and the IC50 came out at 7.54 µM.
With `CCOC(=O)CSc1ncnc2c1cnn2-c1ccccc1`, in assay [1], the IC90 is 39.5 µM and the IC50 came out at 15.3 µM.
For `CC1CCN(C(=O)c2ccc(CNc3c(N4CCCC4)c(=O)c3=O)cc2)CC1`, the IC50 in assay [1] amounted to 8.48 µM.
`O=C(c1ccc(CNc2c(N3CCOCC3)c(=O)c2=O)cc1)N1CCC(c2ccccc2)CC1`: in assay [1], the IC90 is 16 µM and the IC50 stood at 3.43 µM.
As for `CC(C)OC(=O)CSc1ncnc2c1cnn2-c1ccccc1`, the half-inhibitory concentration (IC50) in assay [1] came out at 28.7 µM.
Same read-out and setting: next, `O=C(c1ccc(CNc2c(N3CCCC3)c(=O)c2=O)cc1)N1CC=C(c2ccccc2)CC1`: 3.22 µM and 2.96 µM.
On to `COc1ccc(N2CCN(C(=O)c3ccc(CNC(=O)NCc4ccc(Cl)cc4)cc3)CC2)cc1`, for which, in assay [2] (at 100 µM (top of the series)), the growth inhibition was 3.4% (inactive).
As for `O=C(CSc1nc2c(c(=O)[nH]1)CCC2)NC1CCCCC1`, in assay [1], the IC90 was 3.92 µM and the IC50 is 2.97 µM.
Turning to `O=C(c1ccc(CNc2c(N3CCCC3)c(=O)c2=O)cc1)N1CCN(c2ccccc2)CC1`, the IC50 in assay [1] was 62.3 µM.
As to `CCOC(=O)N1CCC(Nc2c(Nc3cccc(CC)c3)c(=O)c2=O)CC1`, the growth inhibition in assay [2] (at 50 µM (top of the series)) is 3.52% (inactive).
For `O=C(CSc1nc2c(c(=O)[nH]1)CCCC2)NC1CCCCC1`, in assay [1], the concentration for an effect of 90% (IC90) is 3.12 µM and the IC50 was 1.97 µM.
`CCOC(=O)CSc1ncnc2c1cnn2-c1ccc(C)cc1C`: in assay [1], the IC90 was 3.65 µM and the IC50 came to 2.42 µM.
`CC1CCCN(C(=O)c2ccc(CNc3c(N4CCCCC4)c(=O)c3=O)cc2)C1` (stereo not given): the IC50 in assay [1] stood at 3.7 µM.
`CC(=O)c1ccc(NC(=O)c2ccc(CNc3c(N4CCOCC4)c(=O)c3=O)cc2)cc1` registered a 50% inhibitory concentration (IC50) in assay [1] of 50 µM.
In the case of `O=C(CSc1nc2ccccc2c(=O)[nH]1)NC1CCOCC1`, in assay [1], the IC90 is 26 µM and the IC50 is 23.1 µM.
On to `COc1ccc(N2CCN(C(=O)c3ccc(CNc4c(N5CCOCC5)c(=O)c4=O)cc3)CC2)cc1`, for which the IC50 in assay [1] is 6.35 µM and 6.09 µM.
For the molecule `O=C(NCc1ccc(C(=O)N2CCC(c3ccccc3)CC2)cc1)NC1CCCCC1`, in assay [1], the IC90 is 88.7 µM and the IC50 stood at 69.1 µM.
`Cc1cccc(N2CCN(C(=O)c3ccc(CNc4c(N5CCC(C)CC5)c(=O)c4=O)cc3)CC2C)c1` (stereo not given): in assay [1], the IC90 is 41.3 µM and the IC50 is 26.9 µM.
As to `COCCNC(=O)CSc1nc2ccccc2c(=O)[nH]1`, in assay [2] (at 100 µM (top of the series)), the growth inhibition was -5.73% (inactive).
Take `CCC(C)NC(=O)CSc1nc2ccccc2c(=O)[nH]1` (stereo not given): in assay [1], the IC90 was 16.9 µM and the IC50 was determined as 15.7 µM.
Turning to `O=C(NCc1ccc(C(=O)N2CCC(c3ccccc3)CC2)cc1)Nc1ccc(Cl)cc1`, in assay [1], the IC90 was 94 µM and the IC50 was 74.4 µM.
In assay [1], `CC(C)CCNC(=O)CSc1nc2c(c(=O)[nH]1)CCCCC2` had an IC50 of 99.6 µM.
On to `O=C(CSc1nc2c(c(=O)[nH]1)CN(Cc1ccccc1)CC2)NC1CCCCC1`, for which the growth inhibition in assay [2] (at 100 µM (top of the series)) is -0.3% (inactive).
As to `O=C(CSc1nc2ccccc2c(=O)[nH]1)NC1CCCCC1`, in assay [1], the IC90 was less than 0.29 µM and the IC50 was 0.195 µM.
Regarding `COC(=O)CSc1ncnc2c1cnn2-c1ccc(C)cc1C`, in assay [1], the IC90 was 3.65 µM and the IC50 was 2.57 µM.
Consider `COC(=O)C(Cc1ccccc1)NC(=O)CSc1nc2ccccc2c(=O)[nH]1` (stereo not given), for which, in assay [2] (at 100 µM (top of the series)), the growth inhibition was 4.82% (inactive).
As for `CC1CC(C)CN(C(=O)c2ccc(CNc3c(N4CCCC4)c(=O)c3=O)cc2)C1` (stereo not given), in assay [1], the IC50 is 8.84 µM.
On the same count and under the same terms, next, `CC1CC(C)CN(C(=O)C2CCC(CNc3c(N4CCCCC4)c(=O)c3=O)CC2)C1` (stereo not given): 13.7 µM and 29 µM.
For `O=C(NCc1ccc(C(=O)N2CCN(c3ccccc3)CC2)cc1)NC1CCCCC1`, the growth inhibition in assay [2] (at 100 µM (top of the series)) is 2.95% (inactive).

In general, IC50 refers to the midpoint of a concentration-inhibition curve. The low end stands for higher potency, the high end for lower potency. As usually defined, the IC90 is the concentration at which the effect reaches the 90% level.
